Data taken from BindingDB's records for patent US10428104 (Pfizer Inc., 2019).

molecular target: Protein arginine N-methyltransferase 5 (Homo sapiens, UniProt O14744); assay: PRMT5 assay
Description: Following dilution, 1 ul was added to an empty 96-well microtiter plate. PRMT5/MEP50 protein complex was combined with H4(1-21) peptide ([…]) in PRMT5 assay buffer (50 mM Tris pH 8.5, 50 mM NaCl, 5 mM MgCl2, 1 mM EDTA, 1 mM TCEP) and 44 ul was added to the microtiter plate containing compound. S-Adenosyl-L-methionine (SAM) was prepared by combining 3H labelled SAM with unlabelled SAM in PRMT5 assay buffer such that the final SAM concentration was 10 uM and the specific activity was 0.2 uCi/ul. The reaction was initiated by adding 5 ul of SAM stock to the microtiter plate. The final reaction conditions were 10 nM PRMT5/MEP50 complex, 200 nM peptide and 1 uM SAM. Following a 25 minute incubation at room temperature, the reaction was stopped with the addition of 100 uL of 20% TCA. The 3H-peptide product was captured using a 96-well filter plate (MSIPN4B, Millipore) and washed 5 times with PBS buffer. Scintillation fluid (100 ul) was added to the dried filter plate and counted in a liquid scintillation counter. IC50 values were determined by fitting the data to the standard 4-parameter dose response equation using Pfizer proprietary software.

Sequence of Protein arginine N-methyltransferase 5 (O14744 whole entry): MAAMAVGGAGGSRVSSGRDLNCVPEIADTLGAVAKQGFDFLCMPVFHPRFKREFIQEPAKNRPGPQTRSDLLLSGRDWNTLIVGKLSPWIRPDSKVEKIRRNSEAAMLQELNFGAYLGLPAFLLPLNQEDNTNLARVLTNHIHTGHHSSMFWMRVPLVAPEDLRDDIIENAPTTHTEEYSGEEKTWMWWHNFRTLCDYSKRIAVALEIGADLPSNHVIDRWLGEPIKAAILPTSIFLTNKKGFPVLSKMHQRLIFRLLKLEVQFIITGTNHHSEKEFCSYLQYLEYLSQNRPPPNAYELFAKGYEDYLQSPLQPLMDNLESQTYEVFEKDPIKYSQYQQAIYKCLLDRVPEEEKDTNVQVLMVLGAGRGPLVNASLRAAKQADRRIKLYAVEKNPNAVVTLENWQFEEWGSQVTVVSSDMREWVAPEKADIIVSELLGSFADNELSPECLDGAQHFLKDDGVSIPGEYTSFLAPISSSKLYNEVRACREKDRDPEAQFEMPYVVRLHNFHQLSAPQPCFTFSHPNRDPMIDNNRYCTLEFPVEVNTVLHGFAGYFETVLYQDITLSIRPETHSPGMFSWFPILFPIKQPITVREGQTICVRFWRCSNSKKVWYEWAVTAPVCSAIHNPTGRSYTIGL

IC50 | Structure (SMILES)
14700 nM | Cc1ncnc2c1ccn2[C@@H]1O[C@H]([C@@H](O)c2cnn(C)c2)[C@@H](O)[C@H]1O [US10428104, Example 51]
150 nM | Cc1ncnc2c1ccn2[C@@H]1O[C@H]([C@H](O)c2cccc3cc[nH]c23)[C@@H](O)[C@H]1O [US10428104, Example 82]
50 nM | Cc1ncnc2c1ccn2[C@@H]1O[C@H]([C@H](O)c2cnn(C)c2)[C@@H](O)[C@H]1O [US10428104, Example 50]
